Experimental data from patent publication US11253519B2, “Composition used to improve symptoms of autism spectrum disorder, and method using same for improving symptoms of autism spectrum disorder” (RENASCIENCE CO., LTD., priority 2016, dated 2022).

Tests used:
ASD patient = experiment: RSB-R (Repetitive Behavior Scale-Revised, Japanese version, 43 items, 6 subscales) in ASD patients before and after intake; format: in vivo, human; conditions: 800 mg/day oral + fursultiamine 25 mg/day, 8 weeks after the intake
Source text: RSB-R is composed of 6 subscales (I. Stereotypical Behavior, II. Self-Harming Behavior, III. Obsessive-Compulsive Behavior, IV. Ritualized Behavior, V. Insistence on Sameness, and VI. Circumscribed Interests) and 43 items. RSB-R (Japanese version) is a Japanese version of RBS-R, which is a rating scale used worldwide, and whose validity has already been verified (Inada et al., Research in Autism Spectrum Disorders, Vol. 15-16, July 2015, pp. 60-68; Inada et al., Study on reliability and validity of the Japanese version of Repetitive Behaviors Scale—Revised (RBS-R), The Japanese Journal of Developmental Psychology, 2012, Vol. 23, No. 2, pp. 123-133). FIG. 4 illustrates 43 items of RSB-R (including 6 subscales), and the relation between the 43 items of RSB-R and diagnostic criteria A and B of DSM-5.
The symptoms of ASD of the ASD patient were assessed based on the scores of ABC-J, PARS-TR, and RSB-R (Japanese version) by a medical doctor who is a researcher of ASD.
The ASD symptoms of the ASD patient were assessed based on the scores in ABC-J and RSB-R (Japanese version) by a medical doctor who is a researcher of ASD.

[1] = Plasma kinetics of pyridoxamine and metabolites in healthy male adults (LC-MS-MS); format: in vivo, human
Source text: Rather, in blood, the pyridoxal level was higher than the pyridoxamine level. […] The observation results were obtained in a clinical trial performed by collaborators of the applicant of this application, and are shown here simply for reference.

Structure (SMILES): Cc1ncc(CO)c(CN)c1O.Cl.Cl [pyridoxamine dihydrochloride]
- RBS-R total score for each subscale compared with before the intake (ASD patient; case 3, 6 subscales, FIG. 8B): significant decrease
- RBS-R total score compared with before the intake (ASD patient; case 3, FIG. 8A): significant decrease
- total score of all items in RBS-R compared with before the intake (ASD patient; case 4, FIG. 10A): significantly decreased
- RBS-R total score of subscale items (Stereotypical Behavior, Self-Harming Behavior, Obsessive-Compulsive Behavior, Insistence on Sameness) (ASD patient; case 4, FIG. 10B): significantly decreased
- plasma levels of pyridoxamine, pyridoxal, and 4-pyridoxic acid versus dose ([1]; 300, 600, 900 mg/dose oral): increased along with the increase in dose
- time to peak plasma level of pyridoxamine (unchanged substance) ([1]; 300, 600 or 900 mg/dose oral at 0, 6 and 12 hours, trial by collaborators of the applicant): 3 h
- plasma pyridoxine (PN) level ([1]; 300, 600 or 900 mg/dose oral, FIG. 14B): did not show any substantial change
